The source made the active and inactive calls.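 Rule for the calls: active = a tumor-causing dose value with its tumor site reported for any sex and species group of a rodent or other animal cancer study; inconclusive = only studies judged inadequate by the national testing program; inactive = tested in at least one study, none positive.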
Assay: DSSTox (CPDBAS) Carcinogenic Potency Database Summary SingleCellCall Results
Conditions: animal chronic carcinogenicity bioassays, CPDB summary call
Description: The Carcinogenic Potency Database (CPDB) is a unique and widely used international resource of the results of over 6500 chronic, long-term animal cancer tests on over 1500 chemical substances. The CPDB provides easy access to the bioassay literature, with qualitative and quantitative analyses of both positive and negative experiments that have been published over the past 50 years in the general literature and by the National Cancer Institute/National Toxicology Program. The CPDB standardizes the diverse literature of cancer bioassays that vary widely in protocol, histopathological examination and nomenclature, and in the published author's choices of what information to provide in their papers. Results are reported in the CPDB for tests in rats, mice, hamsters, dogs, and nonhuman primates, and are based on the most positive result among all experiments for each sex-species. The DSSTox CPDBAS (all species) file incorporates data from the CPDB Summary Tables for the full list of over 1500 chemical substances tested in at least one species. A summary SingleCellCall, based on experimental bioassay results of one or more species, is provided for the entire DSSTox CPDBAS file (see Source URL).
An assignment of categorical carcinogenic activity based on minimal evidence for or against activity. […] Associated TD50 values and tumor site details for the relevant species/sex experiment supporting this overall CPDBAS SingleSiteCall are provided in the full CPDBAS DSSTox file (see Comment) and the corresponding CPDBAS Species Bioassay in PubChem.

Row | SMILES | outcome
1 | O=C1c2ccccc2C(=O)c2c(O)c(O)cc(O)c21 | active
2 | O=[As]O | inactive
3 | C=Cc1cccc(C)c1 | inactive; active
4 | ClC(Cl)Cl | active
5 | O=C1C2(Cl)C3(Cl)C4(Cl)C(Cl)(Cl)C5(Cl)C3(Cl)C1(Cl)C5(Cl)C24Cl (stereo unspecified) | active; inactive
6 | CC(O)CN(CC(O)CO)N=O (stereo unspecified) | active
7 | CCN(Cc1cccc(S(=O)(=O)O)c1)c1ccc(C(=C2C=CC(=[N+](CC)Cc3cccc(S(=O)(=O)[O-])c3)C=C2)c2ccccc2)cc1 | active
8 | CCCCC1C(=O)N(c2ccccc2)N(c2ccccc2)C1=O | active; inactive
9 | CNC(=O)Oc1cccc2c1OC(C)(C)C2 | inactive
10 | Nc1ccc(N=Nc2ccccc2)c(N)n1 | active
11 | CC(C)C=O | inactive
12 | CC(C)=NNc1ncc(-c2ccc([N+](=O)[O-])o2)s1 | active; inactive
13 | O=S1(=O)CCCO1 | active
14 | Cc1ccc2c(-c3cccc(O)c3)nc(=O)n(C(C)C)c2c1 | inactive
15 | O=C1CCc2ccccc2O1 | active; inactive
16 | CC(=O)Nc1ccc(S(=O)(=O)c2ccc(NC(C)=O)cc2)cc1 | active; inactive
17 | NS(=O)(=O)c1cc(C(=O)O)c(NCc2ccco2)cc1Cl | active; inactive
18 | Clc1c(Cl)c(Cl)c(Cl)c(Cl)c1Cl | active; inactive
19 | NC(=S)NNS(=O)(=O)c1ccccc1 | inactive
20 | CCCN=[N+]([O-])CCC | active
21 | O=C(O)CC(O)(CC(=O)O)C(=O)O | inactive
22 | CCCCC/C=N/N(C)C=O | active
23 | C=CC(=O)c1ccc2c(c1)OCO2 | inactive
24 | CCCCCCc1ccc(O)cc1O | inactive
25 | Cc1cc(O)cc(C)c1N(C)C | inactive; active

Row | SMILES | outcome
26 | O=S(=O)(O)c1ccc(N=Nc2c(O)ccc3cc(S(=O)(=O)O)ccc23)cc1 | inactive
27 | COc1cc2c(c3oc4cccc(O)c4c(=O)c13)C1C=COC1O2 (stereo unspecified) | active; inactive
28 | ClC(Cl)(Cl)Cl | active; inactive
29 | CCN(CC(F)(F)F)N=O | active
30 | O1[As]2O[As]3O[As]1O[As](O2)O3 | inactive
31 | ClCOCCCCOCCl | inactive
32 | O=[N+]([O-])c1ccc(Cl)cc1 | active
33 | CCOC(=O)CBr | inactive
34 | CCCCN(N)C=O | active
35 | COC(C)(C)C | active
36 | CC(C)(c1ccc(O)cc1)c1ccc(O)cc1 | inactive; active
37 | O=NN1CCCCCCC1 | active
38 | Cc1ccc(Cl)cc1N | active
39 | Cc1ccc(N=C=O)cc1N=C=O | active; inactive
40 | O=[N+]([O-])c1ccc2ncccc2c1 | inactive; active
41 | Cc1cc(O)c2c(c1)C(=O)c1cc(O)cc(O)c1C2=O | inactive; active
42 | O=S(=O)(c1ccc(Cl)cc1)c1ccc(Cl)cc1 | inactive; active
43 | C[C@@H]1CCC[C@H](C)N1CCCC(O)(c1ccccc1)c1ccccn1 (stereo partly specified) | inactive; active
44 | C=C(C)C(=O)OC | inactive; active
45 | NNC=O | active
46 | CNN | active
47 | C/C(=C(\CCOC(=O)c1ccccc1)SC(=O)c1ccccc1)N(C=O)Cc1cnc(C)nc1N | inactive; active
48 | FCCl | active
49 | O=Nc1ccc(NO)cc1 | active
50 | CC(C)NCC(O)COc1ccc(CC(N)=O)cc1 (stereo unspecified) | inactive; active

Row | SMILES | outcome
51 | O=NN1CCSCC1 | active
52 | Nc1ccc(-c2ccc(F)cc2)cc1 | active
53 | ClC#CCl | active
54 | O=C(Nc1cccc2c(=O)cc(-c3nn[nH]n3)oc12)c1ccc(OCCCCc2ccccc2)cc1 | inactive; active
55 | CCCCNC(=O)NS(=O)(=O)c1ccc(C)cc1 | inactive
56 | S=C=Nc1ccccc1 | inactive
57 | C/C=C1/C[C@@H](C)[C@](O)(CO)C(=O)OCC2=CC[N+]3([O-])CC[C@@H](OC1=O)[C@@H]23 (stereo partly specified) | active
58 | CC(=O)Nc1nc(NC(C)=O)nc(-c2ccc([N+](=O)[O-])o2)n1 | active
59 | COC(=O)C1=C(C)NC(C)=C(C(=O)OCCc2ccc(N3CCN(C(c4ccccc4)c4ccccc4)CC3)cc2)C1c1cccc([N+](=O)[O-])c1 (stereo unspecified) | inactive; active
60 | CC(=O)C(N=Nc1ccc(Cl)cc1Cl)C(=O)Nc1ccc(-c2ccc(NC(=O)C(N=Nc3ccc(Cl)cc3Cl)C(C)=O)c(C)c2)cc1C (stereo unspecified) | inactive
61 | CN(C)C(=O)Nc1ccc(Cl)c(Cl)c1 | inactive
62 | O=C1CCCCC1 | inactive
63 | NC1=NCN([C@@H]2O[C@H](CO)[C@@H](O)[C@H]2O)C(=O)N1 | inactive; active
64 | Nc1ccc2oc3ccccc3c2c1 | active
65 | O=C(O)CCC(=O)O | inactive; active
66 | [C-]1=CC=CC1.[C-]1=CC=CC1.[Cl-].[Cl-].[Ti+4] | inactive; active
67 | O=S(=O)(O)c1ccc(N=Nc2cc(S(=O)(=O)O)c3ccccc3c2O)c2ccccc12 | inactive; active
68 | CCCC(Cl)CCC(Cl)CCC(Cl)CCC(Cl)CCC(Cl)CCC(Cl)CCC(C)Cl (stereo unspecified) | active
69 | CCC1(CC)C(=O)N=C(O)NC1=O | active; inactive
70 | CN(C)[C@@H]1C(=O)C(C(N)=O)=C(O)[C@@]2(O)C(=O)C3=C(O)c4c(O)cccc4[C@@](C)(O)[C@H]3[C@H](O)[C@@H]12 | inactive; active
71 | C=O | active
72 | CC1=CC(=O)CC(C)(C)C1 | active
73 | CN(C)CCOC(c1ccccc1)c1ccccc1 | inactive
74 | O=[N+]([O-])c1ccc2c(c1)Cc1ccccc1-2 | active
75 | c1ccc2c(c1)Oc1ccccc1O2 | inactive; active

Row | SMILES | outcome
76 | Cc1ccc(N=Nc2c(O)c(S(=O)(=O)O)cc3ccc(S(=O)(=O)O)cc23)c(C)c1 | active; inactive
77 | COc1cc2c(c3oc(=O)c4c(c13)CCOC4=O)C1C=COC1O2 (stereo unspecified) | active
78 | ClC(Cl)(Cl)c1ccccc1 | active; inactive
79 | O=C(NCC1CCCCN1)c1cc(OCC(F)(F)F)ccc1OCC(F)(F)F (stereo unspecified) | inactive
80 | FC(F)(Cl)Cl | inactive
81 | Clc1cc2c(c(Cl)c1Cl)Oc1c(cc(Cl)c(Cl)c1Cl)O2 | active
82 | CC(=O)Nc1cccc2c1-c1ccccc1C2 | inactive
83 | S=C=NCCc1ccccc1 | inactive; active
84 | NNc1nc(-c2ccc([N+](=O)[O-])cc2)cs1 | active
85 | O=C(O)c1cc(N=Nc2ccc(S(=O)(=O)Nc3ccccn3)cc2)ccc1O | active
86 | CC1=C[C@H]2[C@@]3(O)[C@H](C)[C@@H](O)[C@]4(O)[C@H]([C@@H]3C=C(CO)C[C@]2(O)C1=O)C4(C)C | active
87 | C1CO1 | active
88 | COc1ccc2nc(S(=O)Cc3ncc(C)c(OC)c3C)[nH]c2c1 (stereo unspecified) | active
89 | O=NN1CCCCC1C(=O)O (stereo unspecified) | inactive
90 | C=CBr | active
91 | CCC(Br)(CC)C(=O)NC(N)=O | inactive
92 | CCOc1ccccc1C(N)=O | active
93 | C=CCN(CC(C)O)N=O (stereo unspecified) | active
94 | C=CCc1ccc(OC)c(OC)c1 | active; inactive
95 | O=C1CCO1 | active; inactive
96 | COc1cc(OC)c2c3c(c(=O)oc2c1)C(=O)CC3 | inactive; active
97 | C1OC1C1CO1 (stereo unspecified) | inactive
98 | CCCCNC(N)=O | inactive
99 | CN(N=O)c1ccc(/C=C/c2ccnc3ccccc23)cc1 | active
100 | CC1CC(=O)O1 (stereo unspecified) | active

Row | SMILES | outcome
101 | C[C@@H]1CC2(O[C@@H]2C)C(=O)O[C@@H]2CCN(C)C/C=C(/COC(=O)[C@]1(C)O)C2=O (stereo partly specified) | active; inactive
102 | Cc1cc(C)c(N)cc1C | active
103 | ClCOCCCCCCOCCl | inactive
104 | CCCCCCCC(=O)OCC(COC(=O)CCCCCCC)OC(=O)CCCCCCC | active
105 | O=[N+]([O-])c1ccc2nc[nH]c2c1 | active
106 | Clc1ccc(C(c2ccccc2Cl)C(Cl)Cl)cc1 (stereo unspecified) | inactive
107 | CCN=c1cc2oc3cc(NCC)c(C)cc3c(-c3ccccc3C(=O)OCC)c-2cc1C | inactive; active
108 | Nc1ncn([C@@H]2O[C@H](CO)[C@@H](O)[C@H]2O)c(=O)n1 | active
109 | O=S(=O)(Oc1ccc(Cl)cc1)c1ccc(Cl)cc1 | inactive
110 | CC(=O)[O][Sn]([c]1ccccc1)([c]1ccccc1)[c]1ccccc1 | inactive; active
111 | Cn1nc(CO)nc1NCCCOc1cccc(CN2CCCCC2)c1 | active
112 | C=CCN=C=S | active; inactive
113 | Nc1ccc(S(=O)(=O)c2ccc(N)cc2)cc1 | active
114 | CCSCCC(N)C(=O)O (stereo unspecified) | active
115 | O=Nc1ccc(Nc2ccccc2)cc1 | active; inactive
116 | ClCOCCOCCl | active
117 | C[C@@H]1CCCCN1N=O | active
118 | CN[C@H]1CCc2cc(OC)c(OC)c(OC)c2-c2ccc(OC)c(=O)cc21 | inactive
119 | FC(Cl)C(F)(F)F (stereo unspecified) | inactive
120 | C=CF | active; inactive
121 | NC(=O)N(CCF)N=O | active; inactive

Source: PubChem BioAssay AID1189 (EPA DSSTox, 2008)
